Experimental data taken from article PMC8448819, “The Arabidopsis MIK2 receptor elicits immunity by sensing a conserved signature from phytocytokines and microbes” (Nature Communications, 2021).
Where “and” joins values, the source holds several entries; their conditions need not be identical. Equal values may be shown once. Entries after “also recorded” stand apart in the source; their conditions may differ. Read-outs that look alike come from different tables or passages of the source.

How the values were obtained:
[1] = test system: bak1-4 and bak1-5/serk4 mutant seedlings; assay: ROS assay (luminol), coreceptor mutants; format: in vivo, Arabidopsis thaliana
Protocol: (§1) ROS burst was determined by a luminol-based assay. […] Then, ddH2O was replaced by 200 µL of reaction solution containing 50 µM of luminol, and 10 µg/mL of horseradish peroxidase (Sigma-Aldrich) supplemented with or without 100 nM or 1 μM peptide. Luminescence was measured immediately after adding the solution with a luminometer (Glomax 20/20n, Promega) with a one-second interval for 15 min. The total values of ROS production were indicated as means of the relative light units (RLUs).

mik2 mutant seedlings = assay: ROS assay (luminol), mik2 mutants; format: in vivo, Arabidopsis thaliana; conditions: mik2 mutants, 100 nM SCOOPs or 1 µM FocSCOOPL
Protocol: as §1

rbohD mutant seedlings = assay: ROS assay (luminol), rbohD; format: in vivo, Arabidopsis thaliana
Protocol: as §1

[2] = test system: MPK3, MPK4 and MPK6 phosphorylation, mik2-1 seedlings; assay: MAPK assay (α-pERK1/2 immunoblot), mik2-1; format: in vivo, Arabidopsis thaliana; design: dose or concentration left out as unconfirmed; conditions: mik2-1, α-pERK1/2 immunoblot
p35S::Aequorin seedlings = format: in vivo, Arabidopsis thaliana
[3] = test system: bik1/pbl1 mutant seedlings; assay: ROS assay (luminol), bik1/pbl1; format: in vivo, Arabidopsis thaliana; conditions: bik1/pbl1, 100 nM SCOOP12 or 1 µM FocSCOOPL
Protocol: as §1

MIK2-BAK1 association = assay: Co-immunoprecipitation MIK2-BAK1; format: cell-based, Arabidopsis thaliana; conditions: protoplasts, MIK2-HA and BAK1-FLAG, 15 min, co-IP
Protocol: For co-IP assays in protoplasts, protoplasts were co-transfected with pHBT-35S::MIK2-HA and pHBT-35S::BAK1-FALG or pHBT-35S::SERK4-FLAG at 50 μg DNA for 500 μL protoplasts at the density of 2 × 10^5/mL for each sample and were incubated for 12 h. After treatment with 1 µM SCOOP peptides for 15 min, samples were collected by centrifugation at 200 × g for 2 min and lysed in 300 μL IP buffer (20 mM Tris-HCl, pH 7.5, 100 mM NaCl, 1 mM EDTA, 2 mM DTT, 10% [v/v] Glycerol, 0.5% [v/v] Triton X-100 and protease inhibitor cocktail from Sigma) by vortexing. After centrifugation at 10,000 × g for 10 min at 4 °C, 30 μL of supernatant was collected for input controls. The remaining supernatant was pre-incubated with protein-G-agarose beads at 4 °C for 1 h with gentle shaking at […] on a rocker. IP was carried out with α-FLAG agarose for 3 h at 4 °C. Beads were collected by 500 × g centrifugation for 2 min and washed three times with washing buffer (20 mM Tris-HCl, pH 7.5, 100 mM NaCl, 1 mM EDTA, 0.1% [v/v] Triton X-100) and once with 50 mM Tris-HCl, pH 7.5. Immunoprecipitated proteins and input proteins were analyzed by immunoblotting with α-HA (1:3000; Roche, Cat # 12013819001) or α-FLAG antibodies (1:3000; Sigma-Aldrich, Cat # A8592).
For co-IP assays in transgenic seedlings, leaves of 4-week-old pMIK2::MIK2-GFP transgenic plants were hand-inoculated with 1 μM SCOOP10^B or SCOOP12 and were treated for 30 min, followed by total protein isolation with extraction buffer (50 mM Tris-HCl, pH 7.5, 150 mM NaCl, 1% [v/v] NP-40 and 1:200 protease inhibitor cocktail from Sigma). Co-IP was carried out the same as for co-IP with protoplasts except that GFP-Trap agarose beads (Chromotek) were used instead. Immunoprecipitated proteins and input proteins were analyzed by immunoblotting with α-GFP (1:3500; Roche, Cat # 11814460001) or α-BAK1 antibodies (1:2000)[64].

MIK2^ECD [4] = target: T1, MIK2^ECD (Arabidopsis thaliana, UniProt Q8VZG8); assay: Surface plasmon resonance (SPR); format: binding; conditions: CM5 chip with immobilized MIK2^ECD
T1 construct: MIK2^ECD (residues 1–707) and BAK1^ECD (residues 1–220) were amplified by PCR from Col-0 cDNA; 6xHIS (C); made in house; host or cells: High Five insect cells (Bac-to-Bac baculovirus system)
T1 sequence (Q8VZG8 44-707): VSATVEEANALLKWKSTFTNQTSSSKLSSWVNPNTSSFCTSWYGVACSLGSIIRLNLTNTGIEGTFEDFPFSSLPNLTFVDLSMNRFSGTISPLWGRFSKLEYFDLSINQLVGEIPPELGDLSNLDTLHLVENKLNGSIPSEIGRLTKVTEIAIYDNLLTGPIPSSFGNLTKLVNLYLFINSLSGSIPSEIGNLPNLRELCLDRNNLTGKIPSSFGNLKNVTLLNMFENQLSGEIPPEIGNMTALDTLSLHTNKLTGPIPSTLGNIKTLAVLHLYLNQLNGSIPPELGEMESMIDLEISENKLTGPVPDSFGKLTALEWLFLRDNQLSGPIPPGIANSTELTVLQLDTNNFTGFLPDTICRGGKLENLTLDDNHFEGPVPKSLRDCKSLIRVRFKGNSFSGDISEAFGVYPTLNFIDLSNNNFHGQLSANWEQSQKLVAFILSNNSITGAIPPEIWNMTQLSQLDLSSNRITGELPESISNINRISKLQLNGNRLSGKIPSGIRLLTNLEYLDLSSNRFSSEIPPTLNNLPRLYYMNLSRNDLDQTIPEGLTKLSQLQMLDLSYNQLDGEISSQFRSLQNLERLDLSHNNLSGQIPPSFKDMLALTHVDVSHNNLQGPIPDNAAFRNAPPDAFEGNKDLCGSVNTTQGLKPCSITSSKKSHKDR

[5] = test system: Arabidopsis WT (Col-0) seedlings; format: in vivo, Arabidopsis thaliana
MIK2^ECD [6] = target: T1, MIK2^ECD; assay: Isothermal titration calorimetry (ITC); format: binding; conditions: 25 °C, pH 7.0; 600 μM peptide into 30 μM MIK2^ECD
MIK2^ECD-BAK1^ECD = assay: Gel filtration of MIK2^ECD and BAK1^ECD; format: biochemical, Arabidopsis thaliana; conditions: 0.1 mg peptide, 10 mM Bis-Tris pH 6.0, 100 mM NaCl, on ice 1 h
Protocol: The ECD domains of MIK2 (MIK2^ECD) and BAK1 (BAK1^ECD) fused with a 6 × HIS tag at the C-terminus were expressed using the Bac-to-Bac baculovirus expression system (Invitrogen) in High Five cells at 22 °C[25]. One liter of cells (1.8 × 10^6 cells per mL cultured in the medium from Expression Systems) was infected with 20 mL baculovirus and the media were harvested after 48 h of infection. The secreted MIK2^ECD-6 × HIS and BAK1^ECD-6 × HIS proteins were purified using Ni-NTA (Novagen) and size-exclusion chromatography (Hiload 200, GE Healthcare) in buffer containing 10 mM Bis-Tris pH 6.0 and 100 mM NaCl.
The purified MIK2^ECD proteins (0.5 mg for each) and BAK1^ECD proteins (0.2 mg for each) were incubated together with SCOOP12 or SCOOP12^SS/AA (0.1 mg for each) in a buffer containing 10 mM Bis-Tris, pH 6.0, 100 mM NaCl on ice for 1 h. Then, each of the mixtures was separated by gel filtration (Hiload 200, GE Healthcare) with a flow rate of 0.8 mL/min and an injection volume of […] at 4 °C, and the peak fractions were separated on SDS-PAGE followed by Coomassie blue (CBB) staining.

[7] = test system: mik2-1 and mik2-2 mutant seedlings; format: in vivo, Arabidopsis thaliana; conditions: individual values, one per line
Arabidopsis WT seedlings = assay: ROS assay (luminol), WT seedlings; format: in vivo, Arabidopsis thaliana; conditions: WT seedlings
Protocol: as §1

[8] = test system: Arabidopsis WT seedling roots; assay: Microscopy of root browning and root meristems, WT; format: in vivo, Arabidopsis thaliana
[9] = test system: WRKY30, WRKY33 and CYP81F2 expression, WT seedlings; assay: RT-qPCR of defense genes, WT; format: in vivo, Arabidopsis thaliana
[10] = test system: MYB51 promoter, pMYB51::GUS seedling roots; assay: Histochemical GUS staining, pMYB51::GUS; format: in vivo, Arabidopsis thaliana; conditions: pMYB51::GUS seedlings, 1 µM, 3 h
Excerpt: Stained samples were fixed with a 3:1 ethanol:acetic acid solution overnight and cleared by lactic acid and photographed with the Olympus SZX10 stereoscopic microscope equipped with DP27 camera.

[11] = test system: WRKY30, WRKY33 and CYP81F2 expression, mik2 seedlings; assay: RT-qPCR of defense genes, mik2 mutants; format: in vivo, Arabidopsis thaliana
[12] = test system: MPK3, MPK4 and MPK6 phosphorylation, WT seedlings; assay: MAPK assay (α-pERK1/2 immunoblot), WT; format: in vivo, Arabidopsis thaliana
Protocol: (§2) Ten-day-old seedlings grown vertically on ½MS plates were transferred to ddH2O overnight for recovery. Then, ddH2O was replaced by 100 nM peptides for the indicated time.

[13] = test system: MPK3, MPK4 and MPK6 phosphorylation, bak1-4 and bak1-5/serk4 seedlings; assay: MAPK assay (α-pERK1/2 immunoblot), coreceptor mutants; format: in vivo, Arabidopsis thaliana
Protocol: as §2

[14] = test system: mik2-1 roots and leaf protoplasts; assay: TAMRA-SCOOP12 binding in vivo, mik2-1 (confocal); design: species or system Arabidopsis thaliana; conditions: mik2-1, 100 nM TAMRA-SCOOP12, 5 min
[15] = test system: WT roots and leaf protoplasts; assay: TAMRA-SCOOP12 binding and competition in vivo, WT (confocal); design: species or system Arabidopsis thaliana; conditions: 100 nM TAMRA-SCOOP12, 5 min

## MAQSWLKEESSSSHSERAGGR [FocSCOOPL, SCOOPL peptide from F. oxysporum f. sp. conglutinans strain Fo5176]
[1]; bak1-4, 100 nM SCOOP12
  ROS production in bak1-4: blocked in mik2 (h), and in bak1-4
[1]; bak1-5/serk4, 100 nM SCOOP12 or 1 µM FocSCOOPL
  ROS production in bak1-5/serk4: compromised in the bak1-5/serk4
mik2 mutant seedlings
  ROS production in mik2: blocked in mik2
rbohD mutant seedlings
  ROS production in rbohD: compromised in the bak1-5/serk4, bik1/pbl1, and rbohD mutants
[2]
  MAPK activation in mik2: blocked in mik2-1
p35S::Aequorin seedlings; in vivo
  concentration inducing cytosolic Ca^2+ increase: 100 nM
  cytosolic Ca^2+ increase: triggers the cytosolic Ca^2+ increase
[3]
  ROS production in bik1/pbl1: compromised in the bak1-5/serk4, bik1/pbl1, and rbohD mutants
MIK2-BAK1 association
  MIK2-BAK1 association in protoplasts: induces MIK2-BAK1 association

## MGSGASGPVRSAQASQAGGR [SCOOP12SS/AA, Alanine substitutions on two conserved serine residues in the SxS motif of SCOOP12]
MIK2^ECD [4]
  binding to MIK2^ECD, SPR: nearly no binding
[5]; Supplementary Fig. 5d, e
  root growth inhibition of SCOOP12^SS/AA: abolished its activities to inhibit root growth through MIK2
MIK2^ECD [6]
  binding to MIK2^ECD, ITC: No binding was detected
MIK2^ECD-BAK1^ECD
  MIK2^ECD-BAK1^ECD dimerization: unable to induce the dimerization between MIK2^ECD and BAK1^ECD

## RPPTAPIYLPPSKSRKGKGP [SCOOP13, synthesized SCOOP peptide corresponding to the SxS motif]
[7]; mik2-1
  Root length (Fig. 3e): 22.796 and 23.072 and 22.084 and 23.813 and 22.472 and 23.316 and 25.007 and 26.178 and 24.196 and 22.194
[7]; mik2-2
  Root length (Fig. 3e): 23.916 and 28.782 and 22.331 and 28.855 and 26.162 and 23.502 and 23.674 and 22.828 and 26.36 and 25.263 and 22.35
Arabidopsis WT seedlings; repeat 1
  ROS production, total luminescence (Fig. 2h): 1290342
Arabidopsis WT seedlings; repeat 2
  ROS production, total luminescence (Fig. 2h): 1525381
Arabidopsis WT seedlings; repeat 3
  ROS production, total luminescence (Fig. 2h): 622461
[8]; WT seedlings, prolonged treatment
  root browning: led to brown roots
[8]; WT, 5-day-old seedlings, 1 µM, 48 h, PI staining
  root meristem distortion: distorted root meristems
[9]; 1 µM, 1 h, RT-qPCR
  WRKY30, WRKY33 and CYP81F2 expression: upregulation
[9]; repeat 1
  CYP81F2 expression (Fig. 3i): 41.34
[9]; repeat 2
  CYP81F2 expression (Fig. 3i): 47.71
[9]; repeat 3
  CYP81F2 expression (Fig. 3i): 93.81
[9]; repeat 4
  CYP81F2 expression (Fig. 3i): 121.82
[10]
  MYB51 promoter activity in roots: induced the promoter activities of MYB51
[11]; mik2-1, repeat 1
  CYP81F2 expression (Fig. 3i): 0.33
[11]; mik2-1, repeat 2
  CYP81F2 expression (Fig. 3i): 0.51
[11]; mik2-1, repeat 3
  CYP81F2 expression (Fig. 3i): 2.20
[11]; mik2-1, repeat 4
  CYP81F2 expression (Fig. 3i): 5.48
[11]; mik2-2, repeat 1
  CYP81F2 expression (Fig. 3i): 3.17
[11]; mik2-2, repeat 2
  CYP81F2 expression (Fig. 3i): 4.70
[11]; mik2-2, repeat 3
  CYP81F2 expression (Fig. 3i): 4.82
[11]; mik2-2, repeat 4
  CYP81F2 expression (Fig. 3i): 7.05
[11]; mik2 mutants, 1 µM, 1 h, RT-qPCR
  WRKY30, WRKY33 and CYP81F2 expression: abolished in mik2 mutants
p35S::Aequorin seedlings; Ca^2+ and ROS bursts, 100 nM
  ROS production, SCOOP13 and 14 relative to other SCOOPs, and Ca^2+ bursts: relatively weak activities for Ca^2+ and ROS bursts
[5]; in vivo
  root growth inhibition: inhibited root growth to various degrees, with SCOOP10^B and 13 being the most active; also recorded: potent in inhibiting root growth
[12]; Supplementary Fig. 3i
  MAPK activation in shoots and roots: triggered the MAPK activation in both shoots and roots
[13]; bak1-4
  MAPK activation in bak1-4: reduced in bak1-4
[13]; bak1-5/serk4
  MAPK activation in bak1-5/serk4: substantially blocked in bak1-5/serk4

## TAMRA-MGSGASGPVRSSQSSQAGGR [TAMRA-SCOOP12, red fluorescent tetramethylrhodamine (TAMRA)-labeled SCOOP12 peptides at its N-terminus]
[14]
  red fluorescent labelling of root tips and leaf protoplasts: not in mik2-1
[15]
  red fluorescent labelling of root tips and leaf protoplasts: Red fluorescent signals were detected
[5]; Supplementary Fig. 5a, b, MIK2-dependent
  bioactivity of labelled peptide: root growth inhibition vs SCOOP12: slightly lesser extent than SCOOP12
[12]; Supplementary Fig. 5c, MIK2-dependent
  MAPK activation by labelled peptide vs SCOOP12: slightly lesser extent than SCOOP12
